# Patent publication US20040234588A1 (priority 2000, published 2004)
# Where two headings read alike, the source gives them in different places.
# Assays:
# [1] = tested on: Human glioma cell line SF-767; format: cell-based; conditions: cells pretreated with chloroquine 30 minutes at 37° C., nanoemulsion/p-PLL/DNA complex, two quantities
# [2] = tested on: rat 9L glioma cells; format: cell-based
# [3] = format: physicochemical; conditions: after 38 days at 4° C., HPLC
# [4] = tested on: human glioma cells 767 SF; format: cell-based; conditions: for Concentration of B in the cells after 18 hrs incubation: initial B in the media 38 μg
# [5] = format: physicochemical
compound,measurement,setting,value
CCN(CC)CCCC(C)Nc1ccnc2cc(Cl)ccc12 (stereo not drawn) [chloroquine],effect on transfection efficiency (β-galactosidase activity),[1],greatly increased the transfection efficiency
"cholesteryl 1,12-dicarba-closo-dodecaborane 1-carboxylate [BCH]",Concentration of B in the cells after 18 hrs incubation,[2]; High concentration: initial B in the media 16.5 μg/ml,61 ± 13 μg/g cells
same,Concentration of B in the cells after 18 hrs incubation,[2]; Low concentration: initial B in the media 8.25 μg/ml,50 ± 10 μg/g cells
same,initial BCH recovered from the formulation,[3],about 85%
same,uptake in FBS relative to LPDS,[4]; FBS (lipoproteins present) vs LPDS (no lipoproteins),more than triple
same,Concentration of B in the cells after 18 hrs incubation,[4]; FBS media,57.6 ± 15.5 μg/g cells
same,Concentration of B in the cells after 18 hrs incubation,[4]; LPDS media,14.7 ± 3.5 μg/g cells
"C[C@@H]1[C@H](O)[C@@H](C)/C=C/C=C/C=C/C=C/C=C/C=C/C=C/[C@H](O[C@@H]2O[C@H](C)[C@@H](O)[C@H](N)[C@@H]2O)C[C@@H]2O[C@](O)(C[C@@H](O)C[C@@H](O)[C@H](O)CC[C@@H](O)C[C@@H](O)CC(=O)O[C@H]1C)C[C@H](O)[C@H]2C(=O)O [AmpB, Amphotericin B]",AmpB incorporated in the submicron emulsion system,[5]; 10 mg AmpB added to 100 mg lipids,2.33 mg
same,incorporated AmpB recovered with the first fraction,"[5]; first fraction, particle size 177 nm",72%
